US20090298820A1, “3-SUBSTITUTED-1H-PYRROLO[2,3-B]PYRIDINE AND 3-SUBSTITUTED-1H-PYRROLO[3,2-B]PYRIDINE COMPOUNDS, THEIR USE AS MTOR KINASE AND PI3 KINASE INHIBITORS, AND THEIR SYNTHESES” (Wyeth, priority 2008, published 2009)

Tests used:
Type in all cases: biochemical
mTOR = mTOR (Homo sapiens, UniProt P42345); assay: mTOR enzyme assay (DELFIA format, His6-S6K substrate); conditions: read-out: mTOR Kinase Median IC50
PI3Kα = PI3Kα (Homo sapiens, UniProt P42336); assay: PI3K-alpha fluorescence polarization assay; conditions: read-out: PI3Kα Median IC50
PI3Kγ = PI3Kγ (Homo sapiens, UniProt P48736); assay: PI3K-gamma fluorescence polarization assay; conditions: read-out: PI3Kγ Median IC50
Sequence of PI3Kγ (P48736 whole entry, species assumed): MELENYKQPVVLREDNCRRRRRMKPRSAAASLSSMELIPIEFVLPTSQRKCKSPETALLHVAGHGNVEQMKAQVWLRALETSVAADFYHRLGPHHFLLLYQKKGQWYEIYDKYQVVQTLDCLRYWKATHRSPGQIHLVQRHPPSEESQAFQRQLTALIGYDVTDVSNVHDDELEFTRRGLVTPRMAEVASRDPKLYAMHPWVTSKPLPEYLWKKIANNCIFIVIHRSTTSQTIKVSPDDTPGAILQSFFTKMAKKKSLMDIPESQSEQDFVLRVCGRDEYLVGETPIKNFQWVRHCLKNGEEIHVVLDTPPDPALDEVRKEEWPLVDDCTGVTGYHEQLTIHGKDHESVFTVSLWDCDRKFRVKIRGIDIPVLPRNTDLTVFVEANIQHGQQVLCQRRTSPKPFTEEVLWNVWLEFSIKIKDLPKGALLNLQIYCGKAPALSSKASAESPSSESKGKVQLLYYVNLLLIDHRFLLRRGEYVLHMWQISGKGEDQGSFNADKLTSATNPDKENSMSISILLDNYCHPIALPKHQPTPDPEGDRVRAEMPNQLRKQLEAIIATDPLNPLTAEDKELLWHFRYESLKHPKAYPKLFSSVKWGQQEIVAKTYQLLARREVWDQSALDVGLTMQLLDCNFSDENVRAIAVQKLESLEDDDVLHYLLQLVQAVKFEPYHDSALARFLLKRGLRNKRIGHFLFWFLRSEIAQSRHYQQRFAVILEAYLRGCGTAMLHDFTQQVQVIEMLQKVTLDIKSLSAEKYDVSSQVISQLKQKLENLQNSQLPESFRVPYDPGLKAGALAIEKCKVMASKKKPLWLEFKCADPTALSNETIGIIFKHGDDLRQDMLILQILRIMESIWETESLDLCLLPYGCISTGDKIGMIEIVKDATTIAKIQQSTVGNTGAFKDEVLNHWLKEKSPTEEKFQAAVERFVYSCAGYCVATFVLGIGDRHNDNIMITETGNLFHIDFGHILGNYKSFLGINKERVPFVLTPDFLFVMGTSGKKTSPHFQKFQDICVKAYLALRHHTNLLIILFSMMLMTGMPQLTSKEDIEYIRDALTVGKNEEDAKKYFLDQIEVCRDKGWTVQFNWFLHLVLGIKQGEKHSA

Sequence of PI3Kα (P42336 whole entry, species assumed): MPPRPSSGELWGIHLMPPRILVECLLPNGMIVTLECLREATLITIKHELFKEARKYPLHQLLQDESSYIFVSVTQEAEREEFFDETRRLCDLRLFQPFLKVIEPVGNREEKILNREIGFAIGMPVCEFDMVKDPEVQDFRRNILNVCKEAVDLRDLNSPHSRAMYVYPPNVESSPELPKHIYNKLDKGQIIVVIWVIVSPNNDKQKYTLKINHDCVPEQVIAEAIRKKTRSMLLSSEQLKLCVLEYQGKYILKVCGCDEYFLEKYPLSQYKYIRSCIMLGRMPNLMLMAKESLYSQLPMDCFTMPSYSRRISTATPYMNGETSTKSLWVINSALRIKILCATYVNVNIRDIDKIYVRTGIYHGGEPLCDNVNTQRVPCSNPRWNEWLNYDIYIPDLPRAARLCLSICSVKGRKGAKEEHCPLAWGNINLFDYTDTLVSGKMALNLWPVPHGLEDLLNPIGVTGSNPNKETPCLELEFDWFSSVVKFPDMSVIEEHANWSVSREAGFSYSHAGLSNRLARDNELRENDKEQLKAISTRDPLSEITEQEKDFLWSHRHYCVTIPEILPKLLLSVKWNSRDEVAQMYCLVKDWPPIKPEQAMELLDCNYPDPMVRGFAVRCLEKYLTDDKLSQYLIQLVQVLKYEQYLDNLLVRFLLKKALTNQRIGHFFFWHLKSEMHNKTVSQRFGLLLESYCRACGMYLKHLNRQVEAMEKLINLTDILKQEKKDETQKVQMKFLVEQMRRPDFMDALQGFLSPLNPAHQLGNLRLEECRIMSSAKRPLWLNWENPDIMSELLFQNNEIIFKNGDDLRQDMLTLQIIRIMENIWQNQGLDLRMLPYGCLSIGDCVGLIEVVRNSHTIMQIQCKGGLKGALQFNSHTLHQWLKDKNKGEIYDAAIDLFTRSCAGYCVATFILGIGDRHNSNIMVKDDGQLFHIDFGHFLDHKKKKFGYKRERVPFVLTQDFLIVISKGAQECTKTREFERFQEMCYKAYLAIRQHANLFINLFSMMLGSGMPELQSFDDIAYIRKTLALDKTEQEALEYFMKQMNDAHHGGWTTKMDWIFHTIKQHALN
Sequence of PI3Kα (P27986 whole entry partner, species assumed): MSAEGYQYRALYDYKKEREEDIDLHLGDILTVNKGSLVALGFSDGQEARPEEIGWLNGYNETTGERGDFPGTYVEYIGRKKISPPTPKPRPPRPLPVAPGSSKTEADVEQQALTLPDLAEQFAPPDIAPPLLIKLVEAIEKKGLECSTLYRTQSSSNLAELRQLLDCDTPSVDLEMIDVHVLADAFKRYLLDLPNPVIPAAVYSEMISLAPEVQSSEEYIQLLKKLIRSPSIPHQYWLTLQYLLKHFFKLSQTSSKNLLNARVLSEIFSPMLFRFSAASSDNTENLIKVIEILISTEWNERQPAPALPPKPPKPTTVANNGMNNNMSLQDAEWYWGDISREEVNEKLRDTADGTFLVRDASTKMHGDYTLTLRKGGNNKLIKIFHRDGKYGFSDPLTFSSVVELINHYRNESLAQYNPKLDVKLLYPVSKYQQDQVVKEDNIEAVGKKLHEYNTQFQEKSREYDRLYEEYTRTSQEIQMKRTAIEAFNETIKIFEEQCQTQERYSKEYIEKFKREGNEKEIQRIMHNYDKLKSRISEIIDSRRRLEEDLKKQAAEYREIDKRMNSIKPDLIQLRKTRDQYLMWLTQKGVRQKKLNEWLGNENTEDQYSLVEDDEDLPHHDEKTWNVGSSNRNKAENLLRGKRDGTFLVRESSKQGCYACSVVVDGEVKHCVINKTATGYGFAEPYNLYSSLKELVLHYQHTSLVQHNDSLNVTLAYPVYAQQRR

**Q.** What does the source list for `Cn1cc(/C=C2\Oc3cc(O)cc(O)c3C2=O)c2c(-c3ccccc3)ccnc21` [Compound 24, (2Z)-4,6-dihydroxy-2-[(1-methyl-4-phenyl-1H-pyrrolo[2,3-b]pyridin-3-yl)methylene]-1-benzofuran-3(2H)-one]?
**A.** IC50 (mTOR): 0.5 nM; IC50 (PI3Kα): 95 nM; IC50 (PI3Kγ): 93 nM

**Q.** `CN(C)c1ccc(-c2ccnc3c2c(/C=C2\Oc4cc(O)cc(O)c4C2=O)cn3C)cc1` [Compound 25, (2Z)-2-({4-[4-(dimethylamino)phenyl]-1-methyl-1H-pyrrolo[2,3-b]pyridin-3-yl}methylene)-4,6-dihydroxy-1-benzofuran-3(2H)-one] was tested. Which IC50 (mTOR) did it give?
**A.** 0.5 nM

**Q.** And the IC50 (PI3Kα)?
**A.** 85 nM

**Q.** And the IC50 (PI3Kγ)?
**A.** 84 nM

**Q.** Which results are given for `COc1ccc2[nH]cc(/C=C3\Oc4cc(O)cc(O)c4C3=O)c2n1` [Compound 26, (2Z)-4,6-dihydroxy-2-[(5-methoxy-1H-pyrrolo[3,2-b]pyridin-3-yl)methylene]-1-benzofuran-3(2H)-one]?
**A.** IC50 (mTOR): > 4000 nM; IC50 (PI3Kα): 233 nM; IC50 (PI3Kγ): 1580 nM

**Q.** How did the IC50 (mTOR) turn out when `Cn1c(-c2ccccc2)c(/C=C2\Oc3cc(O)cc(O)c3C2=O)c2cccnc21` [Compound 27, (2Z)-4,6-dihydroxy-2-[(1-methyl-2-phenyl-1H-pyrrolo[2,3-b]pyridin-3-yl)methylene]-1-benzofuran-3(2H)-one] was run?
**A.** 50 nM

**Q.** And the IC50 (PI3Kα)?
**A.** 820 nM

**Q.** And the IC50 (PI3Kγ)?
**A.** 4000 nM

**Q.** How did the IC50 (mTOR) turn out when `Cn1c(-c2ccccc2)c(/C=C2\Oc3cc(O)ccc3C2=O)c2cccnc21` [Compound 28, (2Z)-6-hydroxy-2-[(1-methyl-2-phenyl-1H-pyrrolo[2,3-b]pyridin-3-yl)methylene]-1-benzofuran-3(2H)-one] was run?
**A.** 2500 nM

**Q.** And the IC50 (PI3Kα)?
**A.** 5120 nM

**Q.** And the IC50 (PI3Kγ)?
**A.** 5180 nM

**Q.** With `Cn1c(-c2ccccc2)c(/C=C2\Oc3cccc(O)c3C2=O)c2cccnc21` [Compound 29, (2Z)-4-hydroxy-2-[(1-methyl-2-phenyl-1H-pyrrolo[2,3-b]pyridin-3-yl)methylene]-1-benzofuran-3(2H)-one] as the molecule, how does the IC50 (mTOR) read?
**A.** 2700 nM

**Q.** And the IC50 (PI3Kα)?
**A.** 3670 nM

**Q.** What about the IC50 (PI3Kγ) of the same molecule?
**A.** 8000 nM

**Q.** How did the IC50 (mTOR) turn out when `Cn1cc(/C=C2\Oc3cc(O)cc(O)c3C2=O)c2c(-c3cccnc3)ccnc21` [Compound 33, (2Z)-4,6-dihydroxy-2-[(1-methyl-4-pyridin-3-yl-1H-pyrrolo[2,3-b]pyridin-3-yl)methylene]-1-benzofuran-3(2H)-one] was run?
**A.** 0.6 nM

**Q.** And the IC50 (PI3Kα)?
**A.** 8 nM

**Q.** What about the IC50 (PI3Kγ) of the same molecule?
**A.** 38 nM

**Q.** What does the source list for `Cn1cc(/C=C2\Oc3cc(O)cc(O)c3C2=O)c2c(-c3ccc(C(N)=O)cc3)ccnc21` [Compound 34, 4-{3-[(Z)-(4,6-dihydroxy-3-oxo-1-benzofuran-2(3H)-ylidene)methyl]-1-methyl-1H-pyrrolo[2,3-b]pyridin-4-yl}benzamide]?
**A.** IC50 (mTOR): 0.2 nM; IC50 (PI3Kα): 6 nM; IC50 (PI3Kγ): 38 nM

**Q.** Which results are given for `CC(=O)Nc1ccc(-c2ccnc3c2c(/C=C2\Oc4cc(O)cc(O)c4C2=O)cn3C)cc1` [Compound 35, N-(4-{3-[(Z)-(4,6-dihydroxy-3-oxo-1-benzofuran-2(3H)-ylidene)methyl]-1-methyl-1H-pyrrolo[2,3-b]pyridin-4-yl}phenyl)acetamide]?
**A.** IC50 (mTOR): 0.4 nM; IC50 (PI3Kα): 11 nM; IC50 (PI3Kγ): 51 nM

**Q.** How did the IC50 (mTOR) turn out when `Cn1cc(/C=C2\Oc3cc(O)cc(O)c3C2=O)c2c(-c3ccc(NS(C)(=O)=O)cc3)ccnc21` [Compound 36, N-(4-{3-[(Z)-(4,6-dihydroxy-3-oxo-1-benzofuran-2(3H)-ylidene)methyl]-1-methyl-1H-pyrrolo[2,3-b]pyridin-4-yl}phenyl)methanesulfonamide] was run?
**A.** 0.3 nM

**Q.** What about the IC50 (PI3Kα) of the same molecule?
**A.** 7 nM

**Q.** What about the IC50 (PI3Kγ) of the same molecule?
**A.** 36 nM

**Q.** For `Cn1cc(/C=C2\Oc3cc(O)cc(O)c3C2=O)c2c(-c3ccc(N)cc3)ccnc21` [Compound 41, (2Z)-2-{[4-(4-aminophenyl)-1-methyl-1H-pyrrolo[2,3-b]pyridin-3-yl]methylene}-4,6-dihydroxy-1-benzofuran-3(2H)-one], which IC50 (mTOR) is on record?
**A.** 0.4 nM

**Q.** What about the IC50 (PI3Kα) of the same molecule?
**A.** 24 nM

**Q.** What about the IC50 (PI3Kγ) of the same molecule?
**A.** 141 nM

**Q.** What does the source list for `CNc1ccc(-c2ccnc3c2c(/C=C2\Oc4cc(O)cc(O)c4C2=O)cn3C)cc1` [Compound 43, (2Z)-4,6-dihydroxy-2-({1-methyl-4-[4-(methylamino)phenyl]-1H-pyrrolo[2,3-b]pyridin-3-yl}methylene)-1-benzofuran-3(2H)-one]?
**A.** IC50 (mTOR): 0.4 nM; IC50 (PI3Kα): 19 nM; IC50 (PI3Kγ): 66 nM

**Q.** Which results are given for `Cn1cc(/C=C2\Oc3cc(O)cc(O)c3C2=O)c2c(N3CCOCC3)ccnc21` [Compound 45, (2Z)-4,6-dihydroxy-2-[(1-methyl-4-morpholin-4-yl-1H-pyrrolo[2,3-b]pyridin-3-yl)methylene]-1-benzofuran-3(2H)-one]?
**A.** IC50 (mTOR): 0.3 nM; IC50 (PI3Kα): 12 nM; IC50 (PI3Kγ): 131 nM

**Q.** Which results are given for `CN1CCN(c2ccnc3c2c(/C=C2\Oc4cccc(O)c4C2=O)cn3C)CC1` [Compound 47, (2Z)-4-hydroxy-2-{[1-methyl-4-(4-methylpiperazin-1-yl)-1H-pyrrolo[2,3-b]pyridin-3-yl]methylene}-1-benzofuran-3(2H)-one]?
**A.** IC50 (mTOR): 2.8 nM; IC50 (PI3Kα): 173 nM; IC50 (PI3Kγ): 645 nM

**Q.** With `Cn1cc(/C=C2\Oc3cccc(O)c3C2=O)c2c(N3CCOCC3)ccnc21` [Compound 48, (2Z)-4-hydroxy-2-[(1-methyl-4-morpholin-4-yl-1H-pyrrolo[2,3-b]pyridin-3-yl)methylene]-1-benzofuran-3(2H)-one] as the molecule, how does the IC50 (mTOR) read?
**A.** 2.2 nM

**Q.** What about the IC50 (PI3Kα) of the same molecule?
**A.** 53 nM

**Q.** And the IC50 (PI3Kγ)?
**A.** 184 nM

**Q.** How did the IC50 (mTOR) turn out when `Cn1cc(/C=C2\Oc3cc(O)cc(O)c3C2=O)c2c(-c3ccc(N4CCOCC4)cc3)ccnc21` [Compound 49, (2Z)-4,6-dihydroxy-2-{[1-methyl-4-(4-morpholin-4-ylphenyl)-1H-pyrrolo[2,3-b]pyridin-3-yl]methylene}-1-benzofuran-3(2H)-one] was run?
**A.** 0.2 nM

**Q.** And the IC50 (PI3Kα)?
**A.** 25 nM

**Q.** And the IC50 (PI3Kγ)?
**A.** 83 nM

**Q.** For `Cn1cc(/C=C2\Oc3cc(O)cc(O)c3C2=O)c2c(N3CCC(O)CC3)ccnc21` [Compound 50, (2Z)-4,6-dihydroxy-2-{[4-(4-hydroxypiperidin-1-yl)-1-methyl-1H-pyrrolo[2,3-b]pyridin-3-yl]methylene}-1-benzofuran-3(2H)-one], which IC50 (mTOR) is on record?
**A.** 0.2 nM

**Q.** And the IC50 (PI3Kα)?
**A.** 23 nM

**Q.** What about the IC50 (PI3Kγ) of the same molecule?
**A.** 177 nM

**Q.** With `Cn1cc(/C=C2\Oc3cc(O)cc(O)c3C2=O)c2c(/C=C/c3ccccc3)ccnc21` [Compound 51, (2Z)-4,6-dihydroxy-2-({1-methyl-4-[(E)-2-phenylvinyl]-1H-pyrrolo[2,3-b]pyridin-3-yl}methylene)-1-benzofuran-3(2H)-one] as the molecule, how does the IC50 (mTOR) read?
**A.** 3.4 nM

**Q.** What about the IC50 (PI3Kα) of the same molecule?
**A.** 47 nM

**Q.** What about the IC50 (PI3Kγ) of the same molecule?
**A.** 92 nM

**Q.** How did the IC50 (mTOR) turn out when `CN(C)c1cccc(-c2ccnc3c2c(/C=C2\Oc4cc(O)cc(O)c4C2=O)cn3C)c1` [Compound 52, (2Z)-2-({4-[3-(dimethylamino)phenyl]-1-methyl-1H-pyrrolo[2,3-b]pyridin-3-yl}methylene)-4,6-dihydroxy-1-benzofuran-3(2H)-one] was run?
**A.** 0.6 nM

**Q.** What about the IC50 (PI3Kα) of the same molecule?
**A.** 123 nM

**Q.** What about the IC50 (PI3Kγ) of the same molecule?
**A.** 199 nM

**Q.** For `Cn1cc(/C=C2\Oc3cc(O)cc(O)c3C2=O)c2c(N3CC4CCC(C3)O4)ccnc21` [Compound 54, (2Z)-4,6-dihydroxy-2-{[1-methyl-4-(8-oxa-3-azabicyclo[3.2.1]oct-3-yl)-1H-pyrrolo[2,3-b]pyridin-3-yl]methylene}-1-benzofuran-3(2H)-one], which IC50 (mTOR) is on record?
**A.** 0.1 nM

**Q.** What about the IC50 (PI3Kα) of the same molecule?
**A.** 11 nM

**Q.** And the IC50 (PI3Kγ)?
**A.** 70 nM

**Q.** `Cn1cc(/C=C2\Oc3cccc(O)c3C2=O)c2c(N3CC4CCC(C3)O4)ccnc21` [Compound 55, (2Z)-4-hydroxy-2-{[1-methyl-4-(8-oxa-3-azabicyclo[3.2.1]oct-3-yl)-1H-pyrrolo[2,3-b]pyridin-3-yl]methylene}-1-benzofuran-3(2H)-one] was tested. Which IC50 (mTOR) did it give?
**A.** 0.4 nM

**Q.** And the IC50 (PI3Kα)?
**A.** 104 nM

**Q.** What about the IC50 (PI3Kγ) of the same molecule?
**A.** 51 nM

**Q.** For `CN1CCN(c2ccc(-c3ccnc4c3c(/C=C3\Oc5cc(O)cc(O)c5C3=O)cn4C)cc2)CC1` [Compound 56, (2Z)-4,6-dihydroxy-2-({1-methyl-4-[4-(4-methylpiperazin-1-yl)phenyl]-1H-pyrrolo[2,3-b]pyridin-3-yl}methylene)-1-benzofuran-3(2H)-one], which IC50 (mTOR) is on record?
**A.** 1.9 nM

**Q.** What about the IC50 (PI3Kα) of the same molecule?
**A.** 79 nM

**Q.** What about the IC50 (PI3Kγ) of the same molecule?
**A.** 581 nM

**Q.** Which IC50 (mTOR) does the source give for `CN1CCN(c2ccc(-c3ccnc4c3c(/C=C3\Oc5cccc(O)c5C3=O)cn4C)cc2)CC1` [Compound 57, (2Z)-4-hydroxy-2-({1-methyl-4-[4-(4-methylpiperazin-1-yl)phenyl]-1H-pyrrolo[2,3-b]pyridin-3-yl}methylene)-1-benzofuran-3(2H)-one] here?
**A.** 11.4 nM

**Q.** What about the IC50 (PI3Kα) of the same molecule?
**A.** 147 nM

**Q.** What about the IC50 (PI3Kγ) of the same molecule?
**A.** 148 nM

**Q.** With `Cn1cc(/C=C2\Oc3ccc(Br)cc3C2=O)c2c(N3CC4CCC(C3)O4)ccnc21` [Compound 59, (2Z)-5-bromo-2-{[1-methyl-4-(8-oxa-3-azabicyclo[3.2.1]oct-3-yl)-1H-pyrrolo[2,3-b]pyridin-3-yl]methylene}-1-benzofuran-3(2H)-one] as the molecule, how does the IC50 (mTOR) read?
**A.** 35.5 nM

**Q.** What about the IC50 (PI3Kα) of the same molecule?
**A.** 391 nM

**Q.** And the IC50 (PI3Kγ)?
**A.** 980 nM

**Q.** How did the IC50 (mTOR) turn out when `CCNC(=O)Nc1ccc2c(c1)C(=O)/C(=C/c1cn(C)c3nccc(N4CC5CCC(C4)O5)c13)O2` [Compound 61, 1-ethyl-3-[(2Z)-2-{[1-methyl-4-(8-oxa-3-azabicyclo[3.2.1]oct-3-yl)-1H-pyrrolo[2,3-b]pyridin-3-yl]methylene}-3-oxo-2,3-dihydro-1-benzofuran-5-yl]Urea] was run?
**A.** 57 nM

**Q.** What about the IC50 (PI3Kα) of the same molecule?
**A.** 311 nM

**Q.** And the IC50 (PI3Kγ)?
**A.** 668 nM

**Q.** How did the IC50 (mTOR) turn out when `Cn1cc(/C=C2\Oc3cccc(O)c3C2=O)c2c(-c3ccc(N4CCOCC4)nc3)ccnc21` [Compound 69, (2Z)-4-hydroxy-2-{[1-methyl-4-(6-morpholin-4-ylpyridin-3-yl)-1H-pyrrolo[2,3-b]pyridin-3-yl]methylene}-1-benzofuran-3(2H)-one] was run?
**A.** 24.8 nM

**Q.** And the IC50 (PI3Kα)?
**A.** 64 nM

**Q.** And the IC50 (PI3Kγ)?
**A.** 281 nM

**Q.** For `Cn1cc(/C=C2\Oc3cccc(O)c3C2=O)c2c(-c3ccc(N4CCCCC4)nc3)ccnc21` [Compound 70, (2Z)-4-hydroxy-2-{[1-methyl-4-(6-piperidin-1-ylpyridin-3-yl)-1H-pyrrolo[2,3-b]pyridin-3-yl]methylene}-1-benzofuran-3(2H)-one], which IC50 (mTOR) is on record?
**A.** 115 nM

**Q.** What about the IC50 (PI3Kα) of the same molecule?
**A.** 271 nM

**Q.** What about the IC50 (PI3Kγ) of the same molecule?
**A.** 242 nM
